Data: ChEMBL document CHEMBL4334492, “Nectriatide, a Potentiator of Amphotericin B Activity from Nectriaceae sp. BF-0114” (J Nat Prod, 2019)
One block for each compound: values may come before it. Active and inactive are the calls of the source. The rule behind the calls is not given here. Non-standard residues stand in square brackets, D forms with d. Residues, ends and D or L forms follow the SMILES beside them. *: point of attachment. NMeY = CN[C@@H](Cc1ccc(O)cc1)C(=O)O; 2Abz = Nc1ccccc1C(=O)O; tBu = CC(C)(C)*

Key:
Candida albicans [1] = test: Potentiation of amphotericin-induced antifungal activity against Candida albicans ATCC 90029 assessed as fold reduction in amphotericin MIC at 32 ug/ml after 24 hrs by broth microdilution method relative to amphotericin MIC alone; type: functional
Candida albicans [2] = test: Potentiation of amphotericin-induced antifungal activity against Candida albicans ATCC 90029 assessed as amphotericin MIC at 16 ug/ml after 24 hrs by broth microdilution method (reference value: 0.5 ug/ml); type: functional; conditions: ATCC 90029, 24 h
Candida albicans [3] = test: Potentiation of amphotericin-induced antifungal activity against Candida albicans ATCC 90029 assessed as fold reduction in amphotericin MIC at 16 ug/ml after 24 hrs by broth microdilution method relative to amphotericin MIC alone; type: functional
Candida albicans [4] = test: Potentiation of amphotericin-induced antifungal activity against Candida albicans ATCC 90029 assessed as fold reduction in amphotericin MIC at 8 ug/ml after 24 hrs by broth microdilution method relative to amphotericin MIC alone; type: functional
Candida albicans [5] = test: Potentiation of amphotericin-induced antifungal activity against Candida albicans ATCC 90029 assessed as amphotericin MIC at 32 ug/ml after 24 hrs by broth microdilution method (reference value: 0.5 ug/ml); type: functional; conditions: ATCC 90029, 24 h
Candida albicans [6] = test: Potentiation of amphotericin-induced antifungal activity against Candida albicans ATCC 90029 assessed as amphotericin MIC at 8 ug/ml after 24 hrs by broth microdilution method (reference value: 0.5 ug/ml); type: functional; conditions: ATCC 90029, 24 h
Candida albicans [7] = test: Potentiation of amphotericin-induced antifungal activity against Candida albicans ATCC 90029 assessed as amphotericin MIC at 2 ug/ml after 24 hrs by broth microdilution method (reference value: 0.5 ug/ml); type: functional; conditions: ATCC 90029, 24 h
Candida albicans [8] = test: Potentiation of amphotericin-induced antifungal activity against Candida albicans ATCC 90029 assessed as fold reduction in amphotericin MIC at 2 ug/ml after 24 hrs by broth microdilution method relative to amphotericin MIC alone; type: functional
Candida albicans [9] = test: Potentiation of amphotericin-induced antifungal activity against Candida albicans ATCC 90029 assessed as fold reduction in amphotericin MIC at 4 ug/ml after 24 hrs by broth microdilution method relative to amphotericin MIC alone; type: functional
Candida albicans [10] = test: Potentiation of amphotericin-induced antifungal activity against Candida albicans ATCC 90029 assessed as amphotericin MIC at 4 ug/ml after 24 hrs by broth microdilution method (reference value: 0.5 ug/ml); type: functional; conditions: ATCC 90029, 24 h
HEK293 [11] = test: Cytotoxicity against human HEK293 cells at 128 ug/ml after 24 hrs by MTT assay; type: cell-based; conditions: hek293, 24 h
HEK293 [12] = test: Cytotoxicity against human HEK293 cells assessed as reduction in cell viability after 24 hrs by MTT assay; type: cell-based; conditions: HEK293, 24 h
Rhizopus arrhizus [13] = test: Potentiation of amphotericin-induced antifungal activity against Rhizopus oryzae NBRC4705 assessed as fold reduction in amphotericin MIC at 4 ug/ml after 24 hrs by broth microdilution assay relative to amphotericin MIC alone; type: functional
Rhizopus arrhizus [14] = test: Potentiation of amphotericin-induced antifungal activity against Rhizopus oryzae NBRC4705 assessed as fold reduction in amphotericin MIC at 2 ug/ml after 24 hrs by broth microdilution assay relative to amphotericin MIC alone; type: functional
HCT-116 = test: Cytotoxicity against human HCT116 cells at 128 ug/ml after 24 hrs by MTT assay; type: cell-based; conditions: hct-116, 24 h
Saccharomyces cerevisiae [15] = test: Potentiation of amphotericin-induced antifungal activity against Saccharomyces cerevisiae S288c assessed as fold reduction in amphotericin MIC at 32 ug/ml after 24 hrs by broth microdilution assay relative to amphotericin MIC alone; type: functional
Saccharomyces cerevisiae [16] = test: Potentiation of amphotericin-induced antifungal activity against Saccharomyces cerevisiae S288c assessed as fold reduction in amphotericin MIC at 4 ug/ml after 24 hrs by broth microdilution assay relative to amphotericin MIC alone; type: functional
Rhizopus arrhizus [17] = test: Potentiation of amphotericin-induced antifungal activity against Rhizopus oryzae NBRC4705 assessed as amphotericin MIC at 4 ug/ml after 24 hrs by broth microdilution assay (reference value: 1 ug/ml); type: functional; conditions: NBRC4705, 24 h
Rhizopus arrhizus [18] = test: Potentiation of amphotericin-induced antifungal activity against Rhizopus oryzae NBRC4705 assessed as amphotericin MIC at 8 ug/ml after 24 hrs by broth microdilution assay (reference value: 1 ug/ml); type: functional; conditions: NBRC4705, 24 h
Rhizopus arrhizus [19] = test: Potentiation of amphotericin-induced antifungal activity against Rhizopus oryzae NBRC4705 assessed as fold reduction in amphotericin MIC at 16 ug/ml after 24 hrs by broth microdilution assay relative to amphotericin MIC alone; type: functional
HaCaT = test: Cytotoxicity against human HaCaT cells assessed as reduction in cell viability at 128 ug/ml after 24 hrs by MTT assay; type: cell-based
Rhizopus arrhizus [20] = test: Potentiation of amphotericin-induced antifungal activity against Rhizopus oryzae NBRC4705 assessed as amphotericin MIC at 32 ug/ml after 24 hrs by broth microdilution assay (reference value: 1 ug/ml); type: functional; conditions: NBRC4705, 24 h
Candida albicans [21] = test: Potentiation of miconazole-induced antifungal activity against Candida albicans ATCC 90029 at 64 ug/ml after 24 hrs by broth microdilution assay; type: functional, organism-based
Saccharomyces cerevisiae [22] = test: Potentiation of amphotericin-induced antifungal activity against Saccharomyces cerevisiae S288c assessed as amphotericin MIC at 16 ug/ml after 24 hrs by broth microdilution assay (reference value: 0.5 ug/ml); type: functional
Saccharomyces cerevisiae [23] = test: Potentiation of amphotericin-induced antifungal activity against Saccharomyces cerevisiae S288c assessed as fold reduction in amphotericin MIC at 16 ug/ml after 24 hrs by broth microdilution assay relative to amphotericin MIC alone; type: functional
Saccharomyces cerevisiae [24] = test: Potentiation of amphotericin-induced antifungal activity against Saccharomyces cerevisiae S288c assessed as amphotericin MIC at 8 ug/ml after 24 hrs by broth microdilution assay (reference value: 0.5 ug/ml); type: functional
Rhizopus arrhizus [25] = test: Potentiation of amphotericin-induced antifungal activity against Rhizopus oryzae NBRC4705 assessed as amphotericin MIC at 16 ug/ml after 24 hrs by broth microdilution assay (reference value: 1 ug/ml); type: functional; conditions: NBRC4705, 24 h
Candida albicans [26] = test: Potentiation of micafungin-induced antifungal activity against Candida albicans ATCC 90029 at 64 ug/ml after 24 hrs by broth microdilution assay; type: functional, organism-based
Rhizopus arrhizus [27] = test: Potentiation of amphotericin-induced antifungal activity against Rhizopus oryzae NBRC4705 assessed as amphotericin MIC after 24 hrs by broth microdilution assay (reference value: 1 ug/ml); type: functional, organism-based
Rhizopus arrhizus [28] = test: Potentiation of amphotericin-induced antifungal activity against Rhizopus oryzae NBRC4705 assessed as fold reduction in amphotericin MIC at 32 ug/ml after 24 hrs by broth microdilution assay relative to amphotericin MIC alone; type: functional
Aspergillus niger [29] = test: Potentiation of amphotericin-induced antifungal activity against Aspergillus niger ATCC 6275 assessed as fold reduction in amphotericin MIC at 32 ug/ml after 48 hrs by broth microdilution method relative to amphotericin MIC alone; type: functional
Saccharomyces cerevisiae [30] = test: Potentiation of amphotericin-induced antifungal activity against Saccharomyces cerevisiae S288c assessed as fold reduction in amphotericin MIC at 8 ug/ml after 24 hrs by broth microdilution assay relative to amphotericin MIC alone; type: functional
Saccharomyces cerevisiae [31] = test: Potentiation of amphotericin-induced antifungal activity against Saccharomyces cerevisiae S288c assessed as amphotericin MIC after 24 hrs by broth microdilution assay (reference value: 0.5 ug/ml); type: functional, organism-based
Saccharomyces cerevisiae [32] = test: Potentiation of amphotericin-induced antifungal activity against Saccharomyces cerevisiae S288c assessed as amphotericin MIC at 32 ug/ml after 24 hrs by broth microdilution assay (reference value: 0.5 ug/ml); type: functional
Rhizopus arrhizus [33] = test: Potentiation of amphotericin-induced antifungal activity against Rhizopus oryzae NBRC4705 assessed as amphotericin MIC at 2 ug/ml after 24 hrs by broth microdilution assay (reference value: 1 ug/ml); type: functional; conditions: NBRC4705, 24 h
Saccharomyces cerevisiae [34] = test: Potentiation of amphotericin-induced antifungal activity against Saccharomyces cerevisiae S288c assessed as fold reduction in amphotericin MIC at 2 ug/ml after 24 hrs by broth microdilution assay relative to amphotericin MIC alone; type: functional
Saccharomyces cerevisiae [35] = test: Potentiation of amphotericin-induced antifungal activity against Saccharomyces cerevisiae S288c assessed as amphotericin MIC at 4 ug/ml after 24 hrs by broth microdilution assay (reference value: 0.5 ug/ml); type: functional
Aspergillus niger [36] = test: Potentiation of amphotericin-induced antifungal activity against Aspergillus niger ATCC 6275 assessed as amphotericin MIC at 32 ug/ml after 48 hrs by broth microdilution method (reference value: 0.25 ug/ml); type: functional; conditions: ATCC 6275, 48 h
Jurkat = test: Cytotoxicity against human Jurkat cells at 128 ug/ml after 24 hrs by MTT assay; type: cell-based
Rhizopus arrhizus [37] = test: Potentiation of amphotericin-induced antifungal activity against Rhizopus oryzae NBRC4705 assessed as fold reduction in amphotericin MIC at 8 ug/ml after 24 hrs by broth microdilution assay relative to amphotericin MIC alone; type: functional
Saccharomyces cerevisiae [38] = test: Potentiation of amphotericin-induced antifungal activity against Saccharomyces cerevisiae S288c assessed as amphotericin MIC at 2 ug/ml after 24 hrs by broth microdilution assay (reference value: 0.5 ug/ml); type: functional

Compound: CC(C)[C@H](N)C(=O)N(C)[C@@H](Cc1ccc(OC(C)(C)C)cc1)C(=O)Nc1ccccc1C(=O)N[C@@H](C)C(=O)O (H-V[NMeY](tBu)[2Abz]A-OH)
Ratio (Candida albicans [1]): 8
MIC (Candida albicans [2]): 0.13 µg/mL
Ratio (Candida albicans [3]): 4
Ratio (Candida albicans [4]): 2
MIC (Candida albicans [5]): 0.063 µg/mL
MIC (Candida albicans [6]): 0.25 µg/mL

Compound: C[C@H](NC(=O)c1ccccc1N)C(=O)O
Ratio (Candida albicans [1]): 4
MIC (Candida albicans [5]): 0.13 µg/mL

Compound: CN[C@@H](Cc1ccc(OC(C)(C)C)cc1)C(=O)Nc1ccccc1C(=O)O
Ratio (Candida albicans [1]): 4
MIC (Candida albicans [5]): 0.13 µg/mL

Stronger by MIC (Candida albicans [5]), values ahead:

MIC (Candida albicans [2]): 0.063 µg/mL
MIC (Candida albicans [5]): 0.031 µg/mL
MIC (Candida albicans [6]): 0.13 µg/mL
Compound: CC(C)[C@@H]1NC(=O)[C@H](C)NC(=O)c2ccccc2NC(=O)[C@H](Cc2ccc(OC(C)(C)C)cc2)N(C)C1=O (cyclo([2Abz]AV[NMeY](tBu)))
Ratio (Candida albicans [1]): 16
Ratio (Candida albicans [3]): 8
Ratio (Candida albicans [4]): 4

MIC (Candida albicans [2]): 0.031 µg/mL
MIC (Candida albicans [5]): 0.031 µg/mL
MIC (Candida albicans [6]): 0.031 µg/mL
MIC (Candida albicans [7]): 0.25 µg/mL
MIC (Candida albicans [10]): 0.13 µg/mL
Compound: CC(C)[C@H](NC(=O)[C@H](C)N)C(=O)N(C)[C@@H](Cc1ccc(OC(C)(C)C)cc1)C(=O)Nc1ccccc1C(=O)O (H-AV[NMeY](tBu)[2Abz]-OH)
Ratio (Candida albicans [1]): 16
Ratio (Candida albicans [3]): 16
Ratio (Candida albicans [8]): 2
Ratio (Candida albicans [9]): 4

MIC (Rhizopus arrhizus [17]): 0.5 µg/mL
MIC (Rhizopus arrhizus [18]): 0.25 µg/mL
MIC (Candida albicans [2]): 0.063 µg/mL
MIC (Rhizopus arrhizus [20]): 0.25 µg/mL
MIC (Saccharomyces cerevisiae [22]): 0.031 µg/mL
MIC (Saccharomyces cerevisiae [24]): 0.063 µg/mL
MIC (Rhizopus arrhizus [25]): 0.25 µg/mL
MIC (Candida albicans [5]): 0.031 µg/mL
MIC (Saccharomyces cerevisiae [32]): 0.031 µg/mL
MIC (Candida albicans [6]): 0.13 µg/mL
MIC (Rhizopus arrhizus [33]): 0.5 µg/mL
MIC (Saccharomyces cerevisiae [35]): 0.13 µg/mL
MIC (Aspergillus niger [36]): 0.25 µg/mL
MIC (Saccharomyces cerevisiae [38]): 0.13 µg/mL
Compound: CC(C)[C@@H]1NC(=O)[C@H](C)NC(=O)c2ccccc2NC(=O)[C@H](Cc2ccc(O)cc2)N(C)C1=O
Activity (HEK293 [11]): Non-Toxic
IC50 (HEK293 [12]): > 128 µg/mL
Ratio (Candida albicans [1]): 16
Ratio (Rhizopus arrhizus [13]): 2
Ratio (Rhizopus arrhizus [14]): 2
Activity (HCT-116): Non-Toxic
Ratio (Saccharomyces cerevisiae [15]): 16
Ratio (Saccharomyces cerevisiae [16]): 4
Ratio (Rhizopus arrhizus [19]): 4
Activity (HaCaT): Non-Toxic
Activity (Candida albicans [21]): inactive
Ratio (Candida albicans [3]): 8
Ratio (Saccharomyces cerevisiae [23]): 16
Activity (Candida albicans [26]): inactive
Activity (Rhizopus arrhizus [27]): Dose-dependent effect
Ratio (Candida albicans [4]): 4
Ratio (Rhizopus arrhizus [28]): 4
Ratio (Aspergillus niger [29]): 1
Ratio (Saccharomyces cerevisiae [30]): 8
Activity (Saccharomyces cerevisiae [31]): Dose-dependent effect
Ratio (Saccharomyces cerevisiae [34]): 4
Activity (Jurkat): Non-Toxic
Ratio (Rhizopus arrhizus [37]): 4
